The results in this text go back to patent US9452988B2, “Bendamustine derivatives and methods of using same” (Ignyta, Inc., priority 2012, dated 2016).

Data set [1] relates to H-460 (NSCLC). Briefly: MTS cell assay, H-460. The class given is cell-based, Human. As for the experimental part: (§1) Human carcinoma cells (2,000 cells/well) were incubated with the desired concentration of the test molecule (0-200 μM) for 72 hours. The cells were then incubated with MTS solution (Promega) for 1-2 hours, and the compounds effects on cell proliferation was determined by measuring the absorbance at 490 nm. Cell growth was expressed as a percent of the appropriate control (placebo). […] All data reported was the mean±SE of three independent experiments.
In general terms: Tetrazolium assays rely on reduction of a dye to a coloured formazan, in cell work by metabolically active cells.

Data set [2] deals with MB-231 (HBC). Briefly: MTS cell assay, MB-231. The note with it: 72 hours. The data set is classed as cell-based, Human. As for the experimental part:
Charles River Labs athymic nude mice bearing MDA-MB-231 breast carcinoma cell line subcutaneous xenografts (5×10^6 cells in matrigel) were sacrificed to make a tumor isolate. Using sterile instruments and working aseptically, the tumors were removed from the euthanized animal. The tumor was placed in a 50 mL sterile conical tube and 5 mL of trypsin was added. The tumor was cut into small pieces and incubated at 37° C. for 30 minutes. After incubation, a cell strainer was placed on a second, sterile, 50 mL conical tube and the contents of the first tube were placed in the cell strainer. The tissue was forced through the filter using the flat end of a syringe plunger. The cell strainer was washed with 5 mLs of media containing FBS. The cells were spun down and the supernatant was discarded. The cells were resuspended in 20 mLs of complete media containing P/S and placed in a 75 cm flask.
as §1

Data set [3] can be described thus: Rat plasma, blood and organ pharmacokinetics after bendamustine C12 ester 30 mg/kg i.v. The data set is classed as in vivo. The note with it: 1 mL/kg.
Experimental: (§2) Plasma and other tissues were prepared for high performance liquid chromatography (HPLC)/mass spectrometric analysis according to a standard protocol following protein precipitation with acetonitrile containing an internal standard. The samples were then analyzed for both bendamustine HCl and bendamustine esters of the invention and alprenolol (internal standard) via HPLC coupled with tandem mass spectrometry. Tissue samples were homogenized in sodium phosphate buffer and the value obtained from the assay was multiplied by 3 to correct for dilution during processing.
(§3) Adult animals (Charles River, Kingston, N.Y.; n=3 or 4/time point) were used in all experiments. The mice or rats were not fasted overnight prior to IV dose administration via the lateral tail vein. IV doses were administered in a fixed dose volume of 100 μL in mice or a dose volume of 1 mL/kg in rats. The mice were sacrificed by decapitation and trunk blood was collected into heparinized tubes at the sampling times stipulated. For blood collection, each rat (unanesthetized) was placed in a clear Plexiglas® restraining tube, and blood samples (approximately 0.25 mL) were drawn from a lateral tail vein into heparinized collection tubes at the sampling times stipulated. (Note: No pre-dose samples were obtained.) The exception to this procedure was the last sampling time in which the rats were sacrificed by decapitation and trunk blood was obtained rather than blood via a tail vein. The blood samples were placed on wet ice until centrifuged to separate plasma. The plasma fraction was transferred into clean, dry tubes, frozen on dry ice and stored at approximately −20° C. pending analysis. Whole brains and other highly perfused organs (liver, lung, spleen, kidney and heart) were rapidly removed at the predetermined time points and frozen on dry ice. All tissue samples were also stored at approximately −20° C. pending analysis.
(§4) The plasma concentration data for all mice and rats were entered into Excel spreadsheets in preparation for pharmacokinetic analysis. Mean pharmacokinetic parameters were estimated by non-compartmental analysis (Gibaldi and Perrier 1982) of the plasma concentration versus time data using WinNonlin software (Professional Version 4.1, Pharsight Corporation, Palo Alto, Calif.). The terminal rate constant for elimination from plasma (β) was estimated by linear regression of the terminal portion of the semi-logarithmic plasma concentration versus time curve. The apparent terminal half-life (t1/2) was calculated as 0.693 divided by β. The area under the plasma concentration versus time curve from time zero to the time of the last measurable concentration (AUC0-t) after a single dose was determined by the linear trapezoidal rule. The area from zero to infinity (AUC0-∞) was calculated as the sum of AUC0-t and the area extrapolated from the last measurable concentration to infinity (Clast/β). Concentrations pre-dose were all assumed to be zero for the purpose of calculation of the AUC. Any concentration that was below the limit of quantification (BLQ) after the last quantifiable sampling time was considered to be an empty value for the purpose of calculation of the AUC; it was treated as zero for the calculation of the mean concentration for a given sampling time.
The nature of data set [4]: Rat plasma pharmacokinetics, solution formulations of C16, cyclohexyl and 5-decanyl esters, 3 mg-eq/kg i.v. The data set is classed as in vivo. The note with it: solution formulation 3 mg-eq/kg i.v.
Experimental: as §2, §3, §4
Setting [5] is: C12 ester Nanoparticle Formulation.
The mark [6] stands for this setting: Homo sapiens, NCI-H460, 72 hours.

Structures are written as SMILES.

With `CCCCCCCCOC(=O)CCCc1nc2cc(N(CCCl)CCCl)ccc2n1C` [—C8H17, 4-{5-[Bis-(chloroethyl)-amino]-1-methyl-1H-benzimidazol-2-yl}butyric aid octyl ester], inhibition in data set [1] (72 hours) was half-maximal at 49 µM (IC50).
Take `CCCCCCCCCCCCOC(=O)CCCc1nc2cc(N(CCCl)CCCl)ccc2n1C` [Bendamustine C12 Ester, 4-{5-[Bis-(chloroethyl)-amino]-1-methyl-1H-benzimidazol-2-yl}butyric aid dodecyl ester]: in data set [2], the IC50 (in general, the concentration at which inhibition is half-maximal) is 33.3 µM. The compound also gave an IC50 in data set [1] (72 hours) of 28.8 µM. For the same compound, in data set [3] (C12 ester Liquid Formulation), the “AUC0-t of C12 Ester, Blood” value came out at 4424 ng·h/mL; the “AUC0-t of C12 Ester, Brain” value came to 299 ng·h/mL; the “AUC0-t of C12 Ester, Kidney” value is 2383 ng·h/mL; the “AUC0-t of C12 Ester, Liver” value came out at 2564 ng·h/mL. Moreover, in data set [3] (C12 ester Liquid Formulation), the “AUC0-t of C12 Ester, Lung” value was 12619 ng·h/mL; the “AUC0-t of C12 Ester, Spleen” value was 25874 ng·h/mL; the “AUC0-∞ of C12 Ester, Kidney” value was 2605 ng·h/mL; the “AUC0-∞ of C12 Ester, Liver” value was determined as 2586 ng·h/mL. Further, in data set [3] (C12 ester Liquid Formulation), the “AUC0-∞ of C12 Ester, Lung” value was 13246 ng·h/mL; the “AUC0-∞ of C12 Ester, Spleen” value was determined as 25927 ng·h/mL; the “t1/2 of C12 Ester, Kidney” value stood at 5.3 h; the “t1/2 of C12 Ester, Liver” value came to 0.8 h. Besides, in data set [3] (C12 ester Liquid Formulation), the “t1/2 of C12 Ester, Lung” value is on record as 7.6 h and the “t1/2 of C12 Ester, Spleen” value was 3.1 h. In addition, in data set [3] (setting [5]), the “AUC0-t of C12 Ester, Blood” value came to 951 ng·h/mL; the “AUC0-t of C12 Ester, Brain” value came out at 149 ng·h/mL; the “AUC0-t of C12 Ester, Kidney” value is 1766 ng·h/mL; the “AUC0-t of C12 Ester, Liver” value came to 13355 ng·h/mL. Moreover, in data set [3] (setting [5]), the “AUC0-t of C12 Ester, Lung” value was 28327 ng·h/mL; the “AUC0-t of C12 Ester, Spleen” value amounted to 13111 ng·h/mL; the “AUC0-∞ of C12 Ester, Kidney” value came to 1802 ng·h/mL; the “AUC0-∞ of C12 Ester, Liver” value came out at 13586 ng·h/mL. In data set [3] (setting [5]), the “AUC0-∞ of C12 Ester, Lung” value came to 32297 ng·h/mL; the “AUC0-∞ of C12 Ester, Spleen” value amounted to 13578 ng·h/mL; the “t1/2 of C12 Ester, Kidney” value was determined as 4.9 h; the “t1/2 of C12 Ester, Liver” value is recorded as 4.5 h. Further, in data set [3] (setting [5]), the “t1/2 of C12 Ester, Lung” value is recorded as 8.5 h and the “t1/2 of C12 Ester, Spleen” value is listed as 5.4 h.
Consider `CCCCOC(=O)CCCc1nc2cc(N(CCCl)CCCl)ccc2n1C` [—C4H9, 4-{5-[Bis-(chloroethyl)-amino]-1-methyl-1H-benzimidazol-2-yl}butyric acid butyl ester], for which the IC50 turned out to be 13.3 µM in data set [2] (Homo sapiens) and 15.7 µM in data set [1] (setting [6]).
Consider `CCCCCCCCCCCCCCCCOC(=O)CCCc1nc2cc(N(CCCl)CCCl)ccc2n1C` [C16 bendamustine ester, 4-{5-[Bis-(chloroethyl)-amino]-1-methyl-1H-benzimidazol-2-yl}butyric acid hexadecyl ester], for which the IC50 was > 200 µM in data set [2] (Homo sapiens) and 77.8 µM in data set [1] (setting [6]). For the same compound, the AUC(0-t) in data set [4] (plasma, iv, 3 mg/kg, Mean n = 3, read-out: AUC0-t of Ester in plasma) is 1210 ng·h/mL. In addition, the AUC(0-inf) in data set [4] (plasma, iv, 3 mg/kg, Mean n = 3, read-out: AUC0-∞ of Ester in plasma) worked out at 1210 ng·h/mL. Also, the clearance in data set [4] (plasma, iv, 3 mg/kg, Mean n = 3, read-out: CL of Ester) is 41 mL/min/kg. Moreover, the Vd (usually the apparent volume that relates the amount in the body to the concentration in plasma or blood) in data set [4] (plasma, iv, 3 mg/kg, Mean n = 3, read-out: Vd of Ester) was 1 L/kg. Further, the half-life in data set [4] (plasma, iv, 3 mg/kg, Mean n = 3, read-out: t1/2 of Ester in plasma (converted)) was 0.28 h.
As for `CCCCCC(CCCC)OC(=O)CCCc1nc2cc(N(CCCl)CCCl)ccc2n1C` (stereo not drawn) [5-decanyl ester, 4-{5-[Bis-(chloroethyl)-amino]-1-methyl-1H-benzimidazol-2-yl}butyric acid 5-decyl ester], the “Plasma levels of Ester” value in data set [4] was “All < MQL”.
As for `CCCCCCOC(=O)CCCc1nc2cc(N(CCCl)CCCl)ccc2n1C` [—C6H13, 4-{5-[Bis-(chloroethyl)-amino]-1-methyl-1H-benzimidazol-2-yl}butyric acid hexyl ester], the IC50 in data set [2] (Homo sapiens) was determined as 43.7 µM; in data set [1] (setting [6]), 7.4 µM.
With `CCCCCCCCCCOC(=O)CCCc1nc2cc(N(CCCl)CCCl)ccc2n1C` [—C10H21, 4-{5-[Bis-(chloroethyl)-amino]-1-methyl-1H-benzimidazol-2-yl}butyric acid decyl ester], the results for the IC50 in data set [2] (Homo sapiens) and in data set [1] (setting [6]) were 38.9 µM and 23.8 µM, respectively.
Consider `Cn1c(CCCC(=O)OC2CCCCC2)nc2cc(N(CCCl)CCCl)ccc21` [Cy-hexyl bendamustine ester, 4-{5-[Bis-(chloroethyl)-amino]-1-methyl-1H-benzimidazol-2-yl}butyric acid cyclohexyl ester], for which, in data set [4], the “Plasma levels of Ester” value is listed as “All < MQL”.
Consider `CCCCCCCCCCCCCCCOC(=O)CCCc1nc2cc(N(CCCl)CCCl)ccc2n1C` [—C15H31, 4-{5-[Bis-(chloroethyl)-amino]-1-methyl-1H-benzimidazol-2-yl}butyric acid pentadecyl ester], for which the IC50 in data set [2] (Homo sapiens) and in data set [1] (setting [6]) was > 200 µM throughout.
